Several values for one entry are separate records, joined by “and”; a condition that tells them apart may be missing. Equal values may be shown once.
Legend:
[1] = Molar enthalpy of transition or fusion; conditions: Crystal; DSC
[2] = for vapor or sublimation pressure: Transpiration method; for Triple point temperature: DSC

CC(=O)C12CC3CC(CC(C3)C1)C2 [1-adamantyl methyl ketone]
Conditions | Molar enthalpy of transition or fusion [kJ/mol]
[1] | 19.5

[2]
Conditions | vapor or sublimation pressure
291.6 K, Crystal | 0.00076 kPa
293.7 K, Crystal | 0.00099 kPa
296.5 K, Crystal | 0.00136 kPa
298.4 K, Crystal | 0.00174 kPa
303.3 K, Crystal | 0.00299 kPa
308.2 K, Crystal | 0.00505 kPa
308.4 K, Crystal | 0.00506 kPa
313.2 K, Crystal | 0.0085 kPa
316.2 K, Crystal | 0.01174 kPa
318.2 K, Crystal | 0.01406 kPa
318.7 K, Crystal | 0.01511 kPa
320.3 K, Crystal | 0.01713 kPa
323.3 K, Crystal | 0.02368 kPa
331.3 K, Liquid | 0.0399 kPa and 0.0404 kPa
333.2 K, Liquid | 0.04637 kPa and 0.0468 kPa
335.2 K, Liquid | 0.0516 kPa
338.2 K, Liquid | 0.0633 kPa
341.2 K, Liquid | 0.0767 kPa
343.1 K, Liquid | 0.08701 kPa
346.2 K, Liquid | 0.1025 kPa
348.1 K, Liquid | 0.1221 kPa
348.3 K, Liquid | 0.1231 kPa
351.7 K, Liquid | 0.1433 kPa
352.1 K, Liquid | 0.1514 kPa
353.1 K, Liquid | 0.1567 kPa
355.5 K, Liquid | 0.1853 kPa
356 K, Liquid | 0.1912 kPa
358.1 K, Liquid | 0.2111 kPa
358.2 K, Liquid | 0.2186 kPa
360.4 K, Liquid | 0.2451 kPa
363.1 K, Liquid | 0.2835 kPa

Conditions | Triple point temperature [K]
[2], Crystal | 325.2

O=C1C2CC3CC(C2)CC1C3 [2-adamantanone]
[2], Crystal
Conditions | vapor or sublimation pressure [kPa]
293.5 K | 0.00109
296.4 K | 0.00142
297.4 K | 0.00156
298.5 K | 0.00172
300.4 K | 0.00199
303.4 K | 0.00258
306.4 K | 0.00341
308.4 K | 0.00417
313.4 K | 0.00608
318.4 K | 0.00903
323.4 K | 0.01275
328.4 K | 0.01873
333.4 K | 0.02597
338.5 K | 0.03782
343.3 K | 0.05432
348.4 K | 0.07513
353.3 K | 0.09857
358.3 K | 0.1302
363.4 K | 0.1815
368.4 K | 0.2462
373.4 K | 0.3099

O=C(O)C1C2CC3CC(C2)CC1C3 (stereo not given) [adamantane-2-carboxylic acid]
Conditions | Molar enthalpy of transition or fusion [kJ/mol]
[1] | 9.8

[2], Crystal
Conditions | vapor or sublimation pressure
344.3 K | 0.00066 kPa
347.3 K | 0.00087 kPa
350.3 K | 0.00113 kPa
353.4 K | 0.00157 kPa
355.4 K | 0.0018 kPa
356.4 K | 0.00212 kPa
358.4 K | 0.00246 kPa
360.4 K | 0.00307 kPa
362.4 K | 0.00345 kPa
364.4 K | 0.00436 kPa
365.8 K | 0.0048 kPa
368.3 K | 0.00577 kPa
368.4 K | 0.00595 kPa
369.4 K | 0.00628 kPa
370.4 K | 0.00725 kPa
371.4 K | 0.00757 kPa
373.4 K | 0.00923 kPa
374.4 K | 0.00992 kPa
376.4 K | 0.01193 kPa
377.4 K | 0.01257 kPa and 0.01301 kPa
378.4 K | 0.01382 kPa
380.3 K | 0.01584 kPa
381.3 K | 0.01701 kPa
383.4 K | 0.02003 kPa
386.4 K | 0.02497 kPa

Conditions | Triple point temperature [K]
[2], Crystal | 416.3

O=C(O)C12CC3CC(CC(C3)C1)C2 [tricyclo[3.3.1.1(3,7)]decane-1-carboxylic acid]
Conditions | Molar enthalpy of transition or fusion [kJ/mol]
[1] | 17.6

[2], Crystal
Conditions | vapor or sublimation pressure [kPa]
345.2 K | 0.0009
348.2 K | 0.00122
353.2 K | 0.00193
356.7 K | 0.00266
360.2 K | 0.00382
362.2 K | 0.00453
365.2 K | 0.00575
367.7 K | 0.00692
370.2 K | 0.00896
370.3 K | 0.00895
373.2 K | 0.01102
375.2 K | 0.01263
377.3 K | 0.01524
377.7 K | 0.01587
380.2 K | 0.01902
382.2 K | 0.02303
385.3 K | 0.02961

Conditions | Triple point temperature [K]
[2], Crystal | 449.1
